Data reported in PubChem BioAssay AID1919016 (Molecular Pharmacology Branch, DTP, NCI, 2023).

Test system: NCI-H196 complex spheroid growth, percent test/control
Assay: Anticancer human tumor NCI-H196 cell line growth inhibition [AhR];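 also: seven days of drug exposure starting three days after plating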;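 as to viability, T/C: 100% = DMSO vehicle control wells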
Settings: for IC50: curve of first compound; for viability, T/C: stronger effect = lower value
Summary of the method: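 Spheroids combined tumor cells with HUVEC endothelial cells and human MSCs as stroma. AhR antagonists were paired with standard or investigational drugs, each dosed in half-log steps down from near clinical Cmax, or from 10 microM where Cmax was unknown.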

[1] = second compound 0.1 µM, first compound 0.0316 µM
[2] = second compound 0.1 µM, first compound 0.1 µM
[3] = second compound 0.1 µM, first compound 0.316 µM
[4] = second compound 0.1 µM, first compound 1 µM
[5] = second compound 0.316 µM, first compound 0.0316 µM
[6] = second compound 0.316 µM, first compound 0.1 µM
[7] = second compound 0.316 µM, first compound 0.316 µM
[8] = second compound 0.316 µM, first compound 1 µM
[9] = second compound 1 µM, first compound 0.0316 µM
[10] = second compound 1 µM, first compound 0.1 µM
[11] = second compound 1 µM, first compound 0.316 µM
[12] = second compound 1 µM, first compound 1 µM
[13] = second compound 3.16 µM, first compound 0.0316 µM
[14] = second compound 3.16 µM, first compound 0.1 µM
[15] = second compound 3.16 µM, first compound 0.316 µM
[16] = second compound 3.16 µM, first compound 1 µM
[17] = second compound 10 µM, first compound 0.0316 µM
[18] = second compound 10 µM, first compound 0.1 µM
[19] = second compound 10 µM, first compound 0.316 µM
[20] = second compound 10 µM, first compound 1 µM
[21] = second compound 0.1 µM, first compound 3.16 µM
[22] = second compound 0.1 µM, first compound 10 µM
[23] = second compound 0.316 µM, first compound 3.16 µM
[24] = second compound 0.316 µM, first compound 10 µM
[25] = second compound 1 µM, first compound 3.16 µM
[26] = second compound 1 µM, first compound 10 µM
[27] = second compound 3.16 µM, first compound 3.16 µM
[28] = second compound 3.16 µM, first compound 10 µM
[29] = second compound 10 µM, first compound 3.16 µM
[30] = second compound 10 µM, first compound 10 µM

CC1COCCN1c1cc(-c2ccnn2C)c2ccnc(-c3ccn[nH]3)c2n1 (stereo not given) + Cc1cncc(-c2nc(NCCc3c[nH]c4ccccc34)c3ncn(C(C)C)c3n2)c1
IC50 (second compound 0.1 µM): > 1 µM
IC50 (second compound 0.316 µM): > 1 µM
IC50 (second compound 1 µM): > 1 µM
IC50 (second compound 3.16 µM): > 1 µM
IC50 (second compound 10 µM): > 1 µM
viability, T/C (second compound 0.1 µM, first compound 0.00316 µM): 105%
viability, T/C (second compound 0.1 µM, first compound 0.01 µM): 96.6%
viability, T/C [1]: 86.5%
viability, T/C [2]: 70%
viability, T/C [3]: 62.4%
viability, T/C [4]: 60.7%
viability, T/C (second compound 0.316 µM, first compound 0.00316 µM): 95.5%
viability, T/C (second compound 0.316 µM, first compound 0.01 µM): 94.1%
viability, T/C [5]: 86.7%
viability, T/C [6]: 71.2%
viability, T/C [7]: 64.5%
viability, T/C [8]: 52.7%
viability, T/C (second compound 1 µM, first compound 0.00316 µM): 103%
viability, T/C (second compound 1 µM, first compound 0.01 µM): 97.7%
viability, T/C [9]: 96.4%
viability, T/C [10]: 79.4%
viability, T/C [11]: 70.9%
viability, T/C [12]: 57.9%
viability, T/C (second compound 3.16 µM, first compound 0.00316 µM): 106%
viability, T/C (second compound 3.16 µM, first compound 0.01 µM): 123%
viability, T/C [13]: 101%
viability, T/C [14]: 88.8%
viability, T/C [15]: 77.6%
viability, T/C [16]: 58.2%
viability, T/C (second compound 10 µM, first compound 0.00316 µM): 68.1%
viability, T/C (second compound 10 µM, first compound 0.01 µM): 80.7%
viability, T/C [17]: 75.7%
viability, T/C [18]: 66%
viability, T/C [19]: 80%
viability, T/C [20]: 71.8%

CC1COCCN1c1cc(C2(S(C)(=N)=O)CC2)nc(-c2ccnc3[nH]ccc23)n1 (stereo not given) + Cc1cncc(-c2nc(NCCc3c[nH]c4ccccc34)c3ncn(C(C)C)c3n2)c1
IC50 (second compound 0.1 µM): > 10 µM
IC50 (second compound 0.316 µM): > 10 µM
IC50 (second compound 1 µM): > 10 µM
IC50 (second compound 3.16 µM): > 10 µM
IC50 (second compound 10 µM): > 10 µM
viability, T/C [1]: 104%
viability, T/C [2]: 103%
viability, T/C [3]: 91%
viability, T/C [4]: 90.1%
viability, T/C [21]: 88.9%
viability, T/C [22]: 74.5%
viability, T/C [5]: 100%
viability, T/C [6]: 101%
viability, T/C [7]: 101%
viability, T/C [8]: 90.3%
viability, T/C [23]: 85.3%
viability, T/C [24]: 64.5%
viability, T/C [9]: 98.5%
viability, T/C [10]: 96%
viability, T/C [11]: 99.8%
viability, T/C [12]: 96.9%
viability, T/C [25]: 86.9%
viability, T/C [26]: 73.1%
viability, T/C [13]: 108%
viability, T/C [14]: 103%
viability, T/C [15]: 104%
viability, T/C [16]: 96%
viability, T/C [27]: 98.8%
viability, T/C [28]: 71.9%
viability, T/C [17]: 77.3%
viability, T/C [18]: 96.6%
viability, T/C [19]: 87.6%
viability, T/C [20]: 83.7%
viability, T/C [29]: 79.3%
viability, T/C [30]: 76.4%

COc1ccc([C@@H](O)c2cc(-c3ncnc4cc(N5CCOCC5)ccc34)c(F)cc2Cl)nn1 + Cc1cncc(-c2nc(NCCc3c[nH]c4ccccc34)c3ncn(C(C)C)c3n2)c1
IC50 (second compound 0.1 µM): > 10 µM
IC50 (second compound 0.316 µM): > 10 µM
IC50 (second compound 1 µM): > 10 µM
IC50 (second compound 3.16 µM): > 10 µM
IC50 (second compound 10 µM): > 10 µM
viability, T/C [1]: 102%
viability, T/C [2]: 101%
viability, T/C [3]: 97%
viability, T/C [4]: 91.4%
viability, T/C [21]: 78.7%
viability, T/C [22]: 84.7%
viability, T/C [5]: 95.3%
viability, T/C [6]: 99.6%
viability, T/C [7]: 101%
viability, T/C [8]: 97.7%
viability, T/C [23]: 92.6%
viability, T/C [24]: 80.7%
viability, T/C [9]: 104%
viability, T/C [10]: 111%
viability, T/C [11]: 97.6%
viability, T/C [12]: 87.3%
viability, T/C [25]: 95.5%
viability, T/C [26]: 84%
viability, T/C [13]: 105%
viability, T/C [14]: 108%
viability, T/C [15]: 106%
viability, T/C [16]: 94.2%
viability, T/C [27]: 94%
viability, T/C [28]: 94.2%
viability, T/C [17]: 69.8%
viability, T/C [18]: 90.4%
viability, T/C [19]: 92.2%
viability, T/C [20]: 77.7%
viability, T/C [29]: 77.8%
viability, T/C [30]: 71%

O=C(C=Cn1cnc(-c2cc(C(F)(F)F)cc(C(F)(F)F)c2)n1)NNc1cnccn1 + Cc1cncc(-c2nc(NCCc3c[nH]c4ccccc34)c3ncn(C(C)C)c3n2)c1
IC50 (second compound 0.1 µM): 0.0443 µM
IC50 (second compound 0.316 µM): 0.034 µM
IC50 (second compound 1 µM): 0.042 µM
IC50 (second compound 3.16 µM): 0.0402 µM
IC50 (second compound 10 µM): 0.0387 µM
viability, T/C (second compound 0.1 µM, first compound 0.00949 µM): 75.3%
viability, T/C (second compound 0.1 µM, first compound 0.03 µM): 65%
viability, T/C (second compound 0.1 µM, first compound 0.0949 µM): 20.6%
viability, T/C (second compound 0.1 µM, first compound 0.3 µM): 8.92%
viability, T/C (second compound 0.1 µM, first compound 0.949 µM): 8.7%
viability, T/C (second compound 0.1 µM, first compound 3 µM): 5.72%
viability, T/C (second compound 0.316 µM, first compound 0.00949 µM): 73.5%
viability, T/C (second compound 0.316 µM, first compound 0.03 µM): 52.7%
viability, T/C (second compound 0.316 µM, first compound 0.0949 µM): 25.1%
viability, T/C (second compound 0.316 µM, first compound 0.3 µM): 9.13%
viability, T/C (second compound 0.316 µM, first compound 0.949 µM): 9.31%
viability, T/C (second compound 0.316 µM, first compound 3 µM): 8.45%
viability, T/C (second compound 1 µM, first compound 0.00949 µM): 71%
viability, T/C (second compound 1 µM, first compound 0.03 µM): 59.2%
viability, T/C (second compound 1 µM, first compound 0.0949 µM): 27.9%
viability, T/C (second compound 1 µM, first compound 0.3 µM): 13%
viability, T/C (second compound 1 µM, first compound 0.949 µM): 8.4%
viability, T/C (second compound 1 µM, first compound 3 µM): 7.77%
viability, T/C (second compound 3.16 µM, first compound 0.00949 µM): 80%
viability, T/C (second compound 3.16 µM, first compound 0.03 µM): 59.4%
viability, T/C (second compound 3.16 µM, first compound 0.0949 µM): 22.4%
viability, T/C (second compound 3.16 µM, first compound 0.3 µM): 10.5%
viability, T/C (second compound 3.16 µM, first compound 0.949 µM): 8.06%
viability, T/C (second compound 3.16 µM, first compound 3 µM): 8.49%
viability, T/C (second compound 10 µM, first compound 0.00949 µM): 65.2%
viability, T/C (second compound 10 µM, first compound 0.03 µM): 62.8%
viability, T/C (second compound 10 µM, first compound 0.0949 µM): 4.24%
viability, T/C (second compound 10 µM, first compound 0.3 µM): 2.39%
viability, T/C (second compound 10 µM, first compound 0.949 µM): 8.19%
viability, T/C (second compound 10 µM, first compound 3 µM): 5.29%
